In patent US20150045387A1, “Bi-Aromatic And Tri-Aromatic Compounds As NADPH Oxidase 2 (Nox2) Inhibitors” (The University of Surrey, priority 2011, published 2015):

Key:
[1] = test system: SVEC4-10 cells; assay: normal cell proliferation, MTS assay, SVEC4-10; type: cell-based, mouse; conditions: SVEC4-10, LMH001 up to 10 μM, 24 h
Procedure: A) SVEC4-10 cells and HepG2 cells were cultured in the presence or absence of LHM001 (0-10 μM) for 24 h and tested for cell proliferation using a MTS assay kit. B) HL-60 cells were cultured in the presence or absence of LMH001 (0-10 μM), and cell proliferation was examined at 6, 12 and 24 h of culture.
The mouse lymph node microvascular endothelial cell line (SVEC4-10) was from the American Type Culture Collection (CRL-2167) and grown in DMEM, containing 10% (v/v) heat inactivated foetal calf serum, 100 U/mL penicillin and […] streptomycin, in a humidified atmosphere at 37° C. with 5% CO2.
The ex vivo proliferative capabilities of isolated BMSC or cultured cells were analyzed using the MTS proliferation assay. BMSC were suspended in Dulbecco's modified Eagle's medium supplemented with 5% fetal bovine serum (Sigma), 100 U/mL penicillin and 100 μg/mL streptomycin, and plated in 1% gelatin coated 96-well plates at a density of 1×10^5 cells/well in triplicate. After 24 hours in culture medium containing LMH001 (0-10 μM), proliferation was assessed using the MTS (CellTiter 96 AQ; Promega, Madison, USA) assay according to the manufacturer's protocol. The absorbance at 490 nm was read using an ELISA plate reader (Perkin elmer), and the proliferation index calculated relative to the controls. The mean of 3 blank readings was subtracted from each corrected value.

[2] = test system: microvascular endothelial cells (SVEC4-10); assay: basal and angiotensin II induced O2.- production, lucigenin-chemiluminescence; type: cell-based, mouse; conditions: LMH001 5 μM, 24 h in culture, cell homogenates, NADPH-dependent
Procedure: FIG. 10 is a graph showing the effects of LMH001 in culture on basal and angiotensin II induced O2.^− production by microvascular endothelial cells (SVEC4-10). SVEC4-10 cells were cultured in medium alone (Basal) or in the presence of Angiotensin II (AngII, 200 nM) with or without LMH001 (5 μM) for 24 h. Cells were then harvested and cell homogenates were used for the measurement of NADPH-dependent O2.^− production by lucigenin-chemiluminescence. *P<0.05 (n=3 experiments). […]
O2^− production by different cell types was measured using lucigenin (5 μM)-chemiluminescence. A microplate luminometer (LumiStar, BMG) was used, which allows the examination of 96 samples at the same time with kinetic reading facilities. […] Dark-adapted lucigenin (5 μM) was added into the well through an auto-dispenser located in the dark chamber just before reading. The light emission was recorded over a 60 minute period and expressed as arbitrary MLU measured by the illuminometer. Each experiment was performed in triplicate and the mean of 3 blank readings was subtracted from each corrected value for each reading. […]
O2^− production was also studied using total cell homogenate (for the endothelial cells and the fibroblasts). […] Soluble protein concentration was determined using a kit from Bio-Rad Laboratories Ltd. (Hertfordshire, U.K.). […]

Structure (SMILES): O=C(OCc1cccc(O)c1O)c1ccc(O)c(CO)c1 [LMH001, (2,3,-dihydroxyphenyl)methyl 4-hydroxy-3-(hydroxymethyl)benzoate]
- normal cell proliferation under physiological condition [1]: no significant effect
- AngII-induced endothelial O2.- production ([2]; Angiotensin II 200 nM): completely inhibited
- basal cell O2.- production ([2]; medium alone): no effect
